The target in experiment [1] is T1, CB1 receptor (Homo sapiens, UniProt P21554). Put plainly: biochemical. The format is binding. Further details: purchased RBHCB1M400UA.
Experiment [2] addresses T2, CB2 receptor (Homo sapiens, UniProt P34972). The experiment in a line: Competition binding study with [3H]-CP55940 on membranes of CB2-transfected human cells. Further details: purchased RBXCB2M400UA. Conditions: for Ki: mean +/- SEM, [3H]-CP55940 0.15 nM, triplicates; for Selectivity for CB2 compared to CB1 (fold): ratio of Ki CB1 to Ki CB2; for CB2 (% Binding): screening with a single high dose, displacement of [3H]-CP55940 0.15 nM. On the technique in general: In a radioligand displacement assay an active substance lowers the binding of a labelled ligand.

Experiment [3] addresses T1, CB1 receptor. The experiment in a line: Signal transmission (CRE-luciferase) in CHO-CB1-CREluc cells, agonism and antagonism versus WIN. The settings on record: for Functional effect at the CB1 receptor (in words): text and FIGS. 4 to 6.
Experiment [4] addresses T2, CB2 receptor. The experiment in a line: Signal transmission (CRE-luciferase, forskolin) in CHO-CB2-CREluc cells, agonism. Conditions: for Functional effect at the CB2 receptor (in words): FIGS. 2 and 3.
Experiment [5] concerns the target CB2 receptor. Conditions: Pertwee et al. Pharmacol. Rev. 2010; read-out: CB2 affinity (dissociation constant) listed in the literature; cited from earlier work.

Entries after “also recorded” stand apart in the source; their conditions may differ. Where two headings read alike, the source gives them in different places.

T1 sequence (P21554 whole entry): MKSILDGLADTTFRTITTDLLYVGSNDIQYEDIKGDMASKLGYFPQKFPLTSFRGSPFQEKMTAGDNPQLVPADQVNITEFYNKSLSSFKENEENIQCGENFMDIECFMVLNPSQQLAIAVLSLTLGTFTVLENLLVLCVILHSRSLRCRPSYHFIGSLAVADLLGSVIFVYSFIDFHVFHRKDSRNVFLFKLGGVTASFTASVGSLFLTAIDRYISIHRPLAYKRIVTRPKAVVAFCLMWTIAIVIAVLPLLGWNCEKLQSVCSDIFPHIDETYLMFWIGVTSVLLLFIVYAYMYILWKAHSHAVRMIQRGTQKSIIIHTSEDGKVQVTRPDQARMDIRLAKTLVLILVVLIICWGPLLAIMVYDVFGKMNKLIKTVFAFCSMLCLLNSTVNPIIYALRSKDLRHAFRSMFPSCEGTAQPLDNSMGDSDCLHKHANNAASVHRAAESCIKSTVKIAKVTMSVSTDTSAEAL
T2 sequence (P34972 whole entry): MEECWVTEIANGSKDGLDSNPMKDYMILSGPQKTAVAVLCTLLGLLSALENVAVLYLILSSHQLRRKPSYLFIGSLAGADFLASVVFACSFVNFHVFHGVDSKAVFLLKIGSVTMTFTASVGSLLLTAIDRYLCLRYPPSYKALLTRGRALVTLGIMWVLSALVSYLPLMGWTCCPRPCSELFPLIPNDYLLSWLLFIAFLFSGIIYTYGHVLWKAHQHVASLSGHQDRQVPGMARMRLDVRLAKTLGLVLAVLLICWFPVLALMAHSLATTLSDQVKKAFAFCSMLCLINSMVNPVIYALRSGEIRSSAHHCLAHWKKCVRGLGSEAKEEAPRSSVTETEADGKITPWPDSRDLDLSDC

As for `C=C(C)[C@@H]1CCC(C)C=C1c1c(O)cc(CCC)c(C(=O)OC2CCCCC2)c1O` (stereo partly shown) [CHCBDV, cyclohexylcannabidivarinolat], on CB1 receptor [1], the “Binding to CB1 receptor (in words)” value is reported as “strong binding to the receptors within the lower nanomolar range”, the “CB1 (% Binding)” value is listed as 82.4% (n = 4) and the Ki was determined as 13.2 ± 0.85 nM. Moreover, at CB2 receptor [2], the “Binding to CB2 receptor (in words)” value is reported as “strong binding to the receptors within the lower nanomolar range”, the Ki came to 4.62 ± 0.46 nM, the “Selectivity for CB2 compared to CB1 (fold)” value (from here on “Selectivity for CB2 … (fold)”) stood at 2.9 fold and the “CB2 (% Binding)” value is listed as 99.9% (n = 3). Moreover, on CB1 receptor [3], the “Agonism and antagonism at CB1” value is “++”; the “Functional effect at the CB1 receptor (in words)” value is “CB1 and CB2 agonist; also recorded: Dose-dependent agonism”. In addition, on CB2 receptor [4], the “Agonism and antagonism at CB2” value was “++”; the “Functional effect at the CB2 receptor (in words)” value is “CB1 and CB2 agonist; also recorded: Dose-dependent agonism”.

`C=C(C)[C@@H]1CCC(C)C=C1c1c(O)cc(CCC)c(C(=O)OCCCCCC)c1O` (stereo partly shown) [HCBDV, hexylcannabidivarinolat]: on CB1 receptor [1], the “Binding to CB1 receptor (in words)” value is “strong binding to the receptors within the lower nanomolar range”, the “CB1 (% Binding)” value is recorded as 91.1% (n = 4) and the Ki is 8.28 ± 0.69 nM. Moreover, at CB2 receptor [2], the “Binding to CB2 receptor (in words)” value is on record as “strong binding to the receptors within the lower nanomolar range”, the Ki stood at 9.91 ± 2.46 nM, the “Selectivity for CB2 … (fold)” value stood at 0.8 fold and the “CB2 (% Binding)” value is recorded as 98.5% (n = 3). Also, on CB1 receptor [3], the “Agonism and antagonism at CB1” value is recorded as “++”; the “Functional effect at the CB1 receptor (in words)” value is “selective activation of CB1 receptors; also recorded: Dose-dependent agonism”. Moreover, the “Agonism and antagonism at CB2” value on CB2 receptor [4] is reported as 0.

Regarding `C=C(C)[C@@H]1CCC(C)=C[C@H]1c1c(O)cc(CCCCC)cc1O` [CBD, 2-[1R-3-methyl-6-(1-methylethenyl)-2-cyclohexen-1-yl]-5-pentyl-1,3-benzoldiol], the Ki at CB2 receptor [5] was […].

As to `C=C(C)[C@@H]1CCC(C)=C[C@H]1c1c(O)cc(CCC)c(C(=O)OCCO)c1O` [HECBDV, 2-hydroxyethylcannabidivarinolat], the “CB1 (% Binding)” value at CB1 receptor [1] is recorded as 43.3% (n = 5). The Ki at CB1 receptor [1] (read-out: Ki for CB1) amounted to 5650 ± 3900 nM. In addition, on CB2 receptor [2], the Ki was determined as 168 ± 39.4 nM, the “Selectivity for CB2 … (fold)” value came out at 33.6 fold and the “CB2 (% Binding)” value is listed as 95.0% (n = 3). In addition, on CB1 receptor [3], the “Agonism and antagonism at CB1” value is reported as “−”; the “Functional effect at the CB1 receptor (in words)” value is “inhibited; also recorded: Dose-dependent antagonism”. Besides, on CB2 receptor [4], the “Agonism and antagonism at CB2” value is recorded as “++”; the “Functional effect at the CB2 receptor (in words)” value is given as “selective agonist; also recorded: Dose-dependent agonism”.
